Experimental data published in patent US8492559B2, “Substituted indole compounds” (Gruenenthal GmbH, priority 2009, dated 2013).

What follows are molecules tested against T1, B1R receptor of the rat (rB1R) (Rattus norvegicus, UniProt P97583) (assay: Functional investigation on the bradykinin 1 receptor (B1R), FLIPR Ca2+ assay, rB1R cells). Conditions: CHO-K1, 10 μM test substance; CHO K1 cells with rat B1R; agonist Des-Arg9 bradykinin; % of maximum achievable inhibition; read-out: B1R antagonism, rat [10 μM] % inhibition.
T1 construct: expressed in transfected cells; host or cells: CHO K1 cells
T1 sequence (P97583 1-337): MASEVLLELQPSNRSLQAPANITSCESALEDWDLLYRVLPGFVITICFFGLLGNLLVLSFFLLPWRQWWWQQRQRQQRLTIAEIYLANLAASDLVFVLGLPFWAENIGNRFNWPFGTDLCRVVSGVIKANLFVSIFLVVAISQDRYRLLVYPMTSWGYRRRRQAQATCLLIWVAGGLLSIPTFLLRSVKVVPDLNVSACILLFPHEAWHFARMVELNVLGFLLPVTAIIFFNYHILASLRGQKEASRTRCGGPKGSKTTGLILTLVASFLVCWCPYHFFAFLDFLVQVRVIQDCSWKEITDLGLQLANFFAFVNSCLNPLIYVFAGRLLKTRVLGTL
Type: cell-based
Protocol: The indication in % activation is based on the Ca^2+ signal after addition of Lys-Des-[…] bradykinin (0.5 nM) or Des-[…] bradykinin (100 nM). Antagonists lead to a suppression of the Ca^2+ influx following administration of the agonist. The % inhibition in comparison with the maximum achievable inhibition is indicated. […] According to this assay, the Ca^2+ inflow through the channel is quantified with the aid of a Ca^2+-sensitive dye (Fluo-4 type, Molecular Probes Europe BV, Leiden, Netherlands) in a fluorescent imaging plate reader (FLIPR, Molecular Devices, Sunnyvale, USA). […] For functional investigations these cells are plated-out onto black 96-well plates with a clear base (BD Biosciences, Heidelberg, Germany or Greiner, Frickenhausen, Germany) in a density of 20,000-35,000 cells/well. Overnight the cells are incubated at 37° C. and 5% CO2 in culture medium (hB1R cells: Ham's Nutrient Mixture F12, Gibco Invitrogen GmbH, Karlsruhe, Germany or DMEM, Sigma-Aldrich, Taufkirchen, Germany; rB1R cells: D-MEM/F12, Gibco Invitrogen, Karlsruhe, Germany) with 10 vol. % FBS (foetal bovine serum, Gibco Invitrogen GmbH, Karlsruhe, Germany or PAN Biotech GmbH, Aidenbach, Germany). On the following day the cells are loaded with 2.13 μM Fluo-4 (Molecular Probes Europe BV, Leiden, Netherlands) in HBSS buffer (Hank's buffered saline solution, Gibco Invitrogen GmbH, Karlsruhe, Germany) with 2.5 mM probenecid (Sigma-Aldrich, Taufkirchen, Germany) and 10 mM HEPES (Sigma-Aldrich, Taufkirchen, Germany) for 60 min at 37° C. […] Sigma-Aldrich, Taufkirchen, Germany), 5.6 mM glucose and 0.05% gelatine (Merck KGaA, Darmstadt, Germany) is added. After a further incubation of 20 minutes at room temperature, the plates are inserted into the FLIPR for Ca^2+ measurement. Alternatively they are washed with buffer A (15 mM HEPES, 80 mM NaCl, 5 mM KCl, 1.2 mM CaCl2, 0.7 mM MgSO4, 2 g/l glucose, 2.5 mM probenecid) and loaded with buffer A with added 2.5 μM Fluo-4 and 0.025% Pluronic F127 (Sigma-Aldrich, Taufkirchen, Germany). The cells are then washed twice with buffer A and incubated for 30 minutes with buffer A, which additionally contains 0.05% BSA and 0.05% gelatine, at room temperature and then used for Ca^2+ measurement in the FLIPR. The Ca^2+-dependent fluorescence is measured here before and after addition of substances (λex=488 nm, λem=540 nm). The quantification is performed by measuring the highest fluorescence intensity (FC, fluorescence counts) over time. The FLIPR protocol comprises two additions of substance. […] Lys-Des-[…] bradykinin>=50 nM; rB1R: […] Antagonists lead to a suppression of the Ca^2+ inflow. The % inhibition in comparison with the maximum achievable inhibition is calculated. The substances are added in varying concentrations in order to determine the IC50 value. Double or triple determinations (n=2 or n=3) are performed and these are repeated in at least one further independent experiment (N>=2).

| inhibition at 10 µM [%] | SMILES |
| --- | --- |
| 73 | COc1cc(C)c(S(=O)(=O)Nc2cccc3ccn(CCC(=O)N4CCN(CCCN(C)C)CC4)c23)c(C)c1 [G_CC-44, N-[1-[3-[4-(3-Dimethylamino-propyl)-piperazin-1-yl]-3-oxo-propyl]-1H-indol-7-yl]-4-methoxy-2,6-dimethyl-benzenesulfonic acid amide] |
| 59 | COc1cc(C)c(S(=O)(=O)Nc2cccc3ccn(CCC(=O)N4CCC(O)(c5ccccn5)CC4)c23)c(C)c1 [G_CC-45, N-[1-[3-(4-Hydroxy-4-pyridin-2-yl-piperidin-1-yl)-3-oxo-propyl]-1H-indol-7-yl]-4-methoxy-2,6-dimethyl-benzenesulfonic acid amide] |
| 94 | COc1cc(C)c(S(=O)(=O)Nc2cccc3ccn(CCC(=O)N(C)CCCN4CCC(c5cccs5)(N(C)C)CC4)c23)c(C)c1 [G_CC-46, N-[3-(4-Dimethylamino-4-thiophen-2-yl-piperidin-1-yl)-propyl]-3-[7-[[(4-methoxy-2,6-dimethyl-phenyl)sulfonyl]amino]-1H-indol-1-yl]-N-methyl-propionamide] |
| 59 | COc1cc(C)c(S(=O)(=O)Nc2cccc3ccn(CCC(=O)N4CCC(c5ccccc5)(N(C)C)CC4)c23)c(C)c1 [G_CC-48, N-[1-[3-(4-Dimethylamino-4-phenyl-piperidin-1-yl)-3-oxo-propyl]-1H-indol-7-yl]-4-methoxy-2,6-dimethyl-benzenesulfonic acid amide] |
| 92 | COc1cc(C)c(S(=O)(=O)Nc2cccc3ccn(CCC(=O)N(C)CCCN4CCC(c5ccccc5)(N(C)C)CC4)c23)c(C)c1 [G_CC-49, N-[3-(4-Dimethylamino-4-phenyl-piperidin-1-yl)-propyl]-3-[7-[[(4-methoxy-2,6-dimethyl-phenyl)sulfonyl]amino]-1H-indol-1-yl]-N-methyl-propionamide] |
| 93 | COc1cc(C)c(S(=O)(=O)Nc2cccc3ccn(CCC(=O)NCCN4CCC(c5cccs5)(N(C)C)CC4)c23)c(C)c1 [G_CC-51, N-[2-(4-Dimethylamino-4-thiophen-2-yl-piperidin-1-yl)-ethyl]-3-[7-[[(4-methoxy-2,6-dimethyl-phenyl)sulfonyl]amino]-1H-indol-1-yl]-propionamide] |
| 54 | CCN1CCN(CCCNC(=O)CCn2ccc3cccc(NS(=O)(=O)c4c(C)cc(OC)cc4C)c32)CC1 [G_CC-56, N-[3-(4-Ethyl-piperazin-1-yl)-propyl]-3-[7-[[(4-methoxy-2,6-dimethyl-phenyl)sulfonyl]amino]-1H-indol-1-yl]-propionamide] |
| 100 | COc1cc(C)c(S(=O)(=O)Nc2ccc3ccn(CC(=O)N4CCC(OCCN5CCCC5)(c5cccnc5)CC4)c3c2)c(C)c1 [G_CC-57, 4-Methoxy-2,6-dimethyl-N-[1-[2-oxo-2-[4-pyridin-3-yl-4-(2-pyrrolidin-1-yl-ethoxy)-piperidin-1-yl]-ethyl]-1H-indol-6-yl]-benzenesulfonic acid amide] |
| 79 | Cc1cc(S(=O)(=O)Nc2cccc3ccn(CCC(=O)N4CCC(N5CCN(C)CC5)CC4)c23)c(C)cc1Cl [G_CC-61, 4-Chloro-2,5-dimethyl-N-[1-[3-[4-(4-methyl-piperazin-1-yl)-piperidin-1-yl]-3-oxo-propyl]-1H-indol-7-yl]-benzenesulfonic acid amide] |

The remaining lines, values behind:

| SMILES | inhibition at 10 µM [%] |
| --- | --- |
| COc1cc(C)c(S(=O)(=O)Nc2cccc3ccn(CCC(=O)NC4CCC(c5ccccc5)(N5CCC5)CC4)c23)c(C)c1 (stereo not drawn) [G_CC-50, N-[4-(Azetidin-1-yl)-4-phenyl-cyclohexyl]-3-[7-[[(4-methoxy-2,6-dimethyl-phenyl)sulfonyl]amino]-1H-indol-1-yl]-propionamide] | 62 |
| O=C(CCn1ccc2cccc(NS(=O)(=O)c3ccccc3C(F)(F)F)c21)N1CCC2(CC1)CCN(c1ccncc1)CC2 [G_CC-52, N-[1-[3-Oxo-3-(3-pyridin-4-yl-3,9-diazaspiro[5.5]undecan-9-yl)-propyl]-1H-indol-7-yl]-2-(trifluoromethyl)-benzenesulfonic acid amide] | 100 |
| O=C(Cn1ccc2cccc(NS(=O)(=O)c3ccccc3C(F)(F)F)c21)N1CCC2(CC1)CCN(c1ccncc1)CC2 [G_CC-53, N-[1-[2-Oxo-2-(3-pyridin-4-yl-3,9-diazaspiro[5.5]undecan-9-yl)-ethyl]-1H-indol-7-yl]-2-(trifluoromethyl)-benzenesulfonic acid amide] | 101 |
| Cc1cc(S(=O)(=O)Nc2cccc3ccn(CCC(=O)N4CCN(C5CCN(C)CC5)CC4)c23)c(C)cc1Cl [G_CC-59, 4-Chloro-2,5-dimethyl-N-[1-[3-[4-(1-methyl-piperidin-4-yl)-piperazin-1-yl]-3-oxo-propyl]-1H-indol-7-yl]-benzenesulfonic acid amide] | 87 |
| Cc1cc(S(=O)(=O)Nc2cccc3ccn(CCC(=O)N4CCC(CCN5CCCC5)CC4)c23)c(C)cc1Cl [G_CC-60, 4-Chloro-2,5-dimethyl-N-[1-[3-oxo-3-[4-(2-pyrrolidin-1-yl-ethyl)-piperidin-1-yl]-propyl]-1H-indol-7-yl]-benzenesulfonic acid amide] | 87 |
| O=C(CCn1ccc2ccc(N3Cc4cccc(Cl)c4C3=O)cc21)N1CCN(c2ccncc2)CC1 [G_CC-63, 7-Chloro-2-[1-[3-oxo-3-(4-pyridin-4-yl-piperazin-1-yl)-propyl]-1H-indol-6-yl]-2,3-dihydro-isoindol-1-one] | 100 |
| CN1CCC(CN2CCN(C(=O)CCn3ccc4ccc(N5Cc6cccc(Cl)c6C5=O)cc43)CC2)CC1 [G_CC-64, 7-Chloro-2-[1-[3-[4-[(1-methyl-piperidin-4-yl)-methyl]-piperazin-1-yl]-3-oxo-propyl]-1H-indol-6-yl]-2,3-dihydro-isoindol-1-one] | 89 |
| Cc1cc(S(=O)(=O)Nc2ccc3ccn(CCC(=O)N4CCC5(CC4)CCN(c4ccncc4)CC5)c3c2)c(C)cc1Cl [G_CC-65, 4-Chloro-2,5-dimethyl-N-[1-[3-oxo-3-(3-pyridin-4-yl-3,9-diazaspiro[5.5]undecan-9-yl)-propyl]-1H-indol-6-yl]-benzenesulfonic acid amide] | 53 |
| O=C(CCn1ccc2ccc(N3Cc4cccc(Cl)c4C3=O)cc21)N1CCC2(CC1)CCN(Cc1ccc(F)cc1)C2=O [G_CC-66, 8-[3-[6-(4-Chloro-3-oxo-1,2-dihydro-isoindol-2-yl)-1H-indol-1-yl]-propanoyl]-3-[(4-fluorophenyl)-methyl]-3,8-diazaspiro[4.5]decan-4-one] | 52 |
| O=C(CCn1ccc2ccc(N3Cc4cccc(Cl)c4C3=O)cc21)N1CCC(Oc2ccncc2)CC1 [G_CC-68, 7-Chloro-2-[1-[3-oxo-3-(4-pyridin-4-yloxy-piperidin-1-yl)-propyl]-1H-indol-6-yl]-2,3-dihydro-isoindol-1-one] | 69 |
| O=C(CCn1ccc2ccc(N3Cc4cccc(Cl)c4C3=O)cc21)N1CCC(O)(c2cccnc2)CC1 [G_CC-69, 7-Chloro-2-[1-[3-(4-hydroxy-4-pyridin-3-yl-piperidin-1-yl)-3-oxo-propyl]-1H-indol-6-yl]-2,3-dihydro-isoindol-1-one] | 65 |
| Cc1cc(S(=O)(=O)Nc2cccc3ccn(CCC(=O)NCCC4CCN(c5ccncc5)CC4)c23)c(C)cc1Cl [G_CC-70, 3-[7-[[(4-Chloro-2,5-dimethyl-phenyl)sulfonyl]amino]-1H-indol-1-yl]-N-[2-(1-pyridin-4-yl-piperidin-4-yl)-ethyl]-propionamide] | 100 |
